Results taken from patent US20210369853A1, “TARGETED PROTEASE DEGRADATION PLATFORM” (EUBULUS BIOTHERAPEUTICS INC., priority 2018, published 2021).
Like-named read-outs stand apart in the source and are kept apart here.

What was measured:
Assay type in all cases: cell-based
[1] = tested on: Human Colon Cancer HCT-116; assay: Cell proliferation experiment (Alarm blue, 72 h, EC50); conditions: Homo sapiens, HCT-116; HCT116 cells
Procedure, shortened: (§1)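 Duplicate wells per concentration, 5-fold dilution series, 72 h continuous exposure of log-phase cells; read-out Alamar blue fluorescence, EC50 derived by curve fit with minimum, maximum and slope terms.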

[2] = tested on: Human Monocytic Leukemia MV4-11; assay: as above; conditions: Homo sapiens
Procedure, shortened: as §1

PLK1 = target: T1, PLK1 (Homo sapiens, UniProt P53350); assay: Western blot, protein degradation (DC50)
T1 construct: endogenous in cells
T1 sequence (P53350 whole entry): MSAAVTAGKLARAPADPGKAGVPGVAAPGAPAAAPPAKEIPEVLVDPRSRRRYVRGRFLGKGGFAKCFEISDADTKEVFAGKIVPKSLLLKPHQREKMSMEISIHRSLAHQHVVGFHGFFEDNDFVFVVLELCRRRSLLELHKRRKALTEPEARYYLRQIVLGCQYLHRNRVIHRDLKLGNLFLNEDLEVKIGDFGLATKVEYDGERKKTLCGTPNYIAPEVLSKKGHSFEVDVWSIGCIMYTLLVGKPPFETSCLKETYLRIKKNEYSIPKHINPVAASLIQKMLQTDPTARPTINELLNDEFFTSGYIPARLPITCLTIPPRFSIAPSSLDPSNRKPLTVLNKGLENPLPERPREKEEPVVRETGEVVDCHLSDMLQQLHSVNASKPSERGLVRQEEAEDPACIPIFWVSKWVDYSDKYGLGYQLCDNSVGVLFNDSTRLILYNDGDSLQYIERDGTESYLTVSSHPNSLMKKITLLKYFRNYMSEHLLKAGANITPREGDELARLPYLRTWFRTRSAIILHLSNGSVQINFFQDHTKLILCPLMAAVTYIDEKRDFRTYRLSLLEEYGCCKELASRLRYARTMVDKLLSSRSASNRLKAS
Procedure, shortened: (§2)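 Cells treated with compound, lysed in RIPA and resolved by SDS-PAGE (4%-12%); PVDF blots probed with primary antibody overnight at 4° C, then secondary antibody, and developed with ECL. Band intensities quantified by densitometry to give degradation.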

HUVEC [3] = assay: Cell proliferation experiment (EC50), HUVEC; conditions: Homo sapiens
PBMC [4] = assay: Cell proliferation experiment (EC50), PBMC
Human Colon Cancer HT-29 = assay: Cell proliferation experiment (Alarm blue, 72 h, EC50); conditions: Homo sapiens; HT-29 cells
Procedure, shortened: as §1

[5] = tested on: Human Glioma Cells U-87 MG; assay: as above; conditions: Homo sapiens; U-87MG cells
Procedure, shortened: as §1

[6] = tested on: Human Small Cell Lung Cancer NCI-H82; assay: as above; conditions: Homo sapiens, NCI-H82; NCIH82 cells
Procedure, shortened: as §1

Daudi [7] = assay: Cell proliferation experiment (EC50), Daudi; conditions: Homo sapiens; Daudi cells
BRD4 = target: T2, BRD4 (Homo sapiens, UniProt O60885); assay: Western blot, protein degradation (DC50)
T2 construct: endogenous in cells
Procedure, shortened: as §2

HUVEC [8] = assay: Cell proliferation experiment (EC50), HUVEC; conditions: Homo sapiens; remark: listed apart in the source
PBMC [9] = assay: Cell proliferation experiment (EC50), PBMC; remark: listed apart in the source
[10] = tested on: Human Acute Lymphoblastic Leukemia Cells MOLT-4; assay: Cell proliferation experiment (Alarm blue, 72 h, EC50); conditions: MOL4-4 cells
Procedure, shortened: as §1

[11] = tested on: Human Acute Myelomonocytic Leukemia HL-60; assay: as above; conditions: HL-60 cells
Procedure, shortened: as §1

[12] = tested on: Human Breast Cancer MDA-MB-231; assay: as above; conditions: Homo sapiens; MDA-MB-231 cells
Procedure, shortened: as §1

Daudi [13] = assay: Cell proliferation experiment (EC50), Daudi; conditions: Homo sapiens; Daudi cells; remark: listed apart in the source
[14] = 6 h, western blot, read-out: BRD4 DC50 (6 h)
[15] = 6 h, western blot, read-out: PLK1 DC50 (6 h)

| EC50 ([2]; MV4-11, MV4;11 cells) [nM] | EC50 (Human Colon Cancer HT-29) [nM] | EC50 [5] [nM] | EC50 [6] [nM] | EC50 (Daudi [7]) [nM] | Structure (SMILES) | EC50 ([2]; MV4;11 cells) [nM] | DC50 (BRD4; [14]) [nM] | DC50 (PLK1; [15]) [nM] | EC50 (HUVEC [8]) [nM] | EC50 (PBMC [9]) [nM] | also measured |
| --- | --- | --- | --- | --- | --- | --- | --- | --- | --- | --- | --- |
| < 10 | 100 to 1000 | 100 to 1000 | 100 to 1000 | 100 to 1000 | CC[C@@H]1C(=O)N(C)c2cnc(Nc3ccc(C(=O)NCc4cn(CCN(C)CCC(=O)Nc5cccc6c5CN(C5CCC(=O)NC5=O)C6=O)nn4)cc3OC)nc2N1C1CCCC1 (stereo partly drawn) [UB-180848] |  |  |  |  |  |  |
| < 10 | 100 to 1000 | 100 to 1000 | 100 to 1000 | 100 to 1000 | CC[C@@H]1C(=O)N(C)c2cnc(Nc3ccc(C(=O)NCCOCCOCCOCCOCCNCC#Cc4cccc5c4CN(C4CCC(=O)NC4=O)C5=O)cc3OC)nc2N1C1CCCC1 (stereo partly drawn) [UB-180844] |  |  |  |  |  | DC50 (BRD4; 6 h, read-out: BRD4 DC50 (6 h)): 10 to 100 nM; DC50 (PLK1; 6 h, read-out: PLK1 DC50 (6 h)): 10 to 100 nM |
| 100 to 1000 | 100 to 1000 | 100 to 1000 | 100 to 1000 | 100 to 1000 | CC[C@@H]1C(=O)N(C)c2cnc(Nc3ccc(C(=O)NCCC[C@@H](N)C(=O)Nc4cccc5c4CN(C4CCC(=O)NC4=O)C5=O)cc3OC)nc2N1C1CCCC1 (stereo partly drawn) [UB-180856] |  |  |  |  |  |  |
| < 10 | 100 to 1000 | 100 to 1000 | 100 to 1000 | 100 to 1000 | CC[C@@H]1C(=O)N(C)c2cnc(Nc3ccc(C(=O)NCCOCCOCCNCC#Cc4cccc5c4CN(C4CCC(=O)NC4=O)C5=O)cc3OC)nc2N1C1CCCC1 (stereo partly drawn) [UB-180845] |  |  |  |  |  | DC50 (BRD4; 6 h, read-out: BRD4 DC50 (6 h)): < 10 nM |
| 100 to 1000 | 100 to 1000 | 100 to 1000 | 100 to 1000 | 100 to 1000 | CC[C@@H]1C(=O)N(C)c2cnc(Nc3ccc(C(=O)NCCCC[C@@H](N)C(=O)Nc4cccc5c4CN(C4CCC(=O)NC4=O)C5=O)cc3OC)nc2N1C1CCCC1 (stereo partly drawn) [UB-180855] |  |  |  |  |  |  |

Continued, compound first:

| Structure (SMILES) | EC50 ([2]; MV4-11, MV4;11 cells) [nM] | EC50 (Human Colon Cancer HT-29) [nM] | EC50 [5] [nM] | EC50 [6] [nM] | EC50 (Daudi [7]) [nM] | EC50 ([2]; MV4;11 cells) [nM] | DC50 (BRD4; [14]) [nM] | DC50 (PLK1; [15]) [nM] | EC50 (HUVEC [8]) [nM] | EC50 (PBMC [9]) [nM] | also measured |
| --- | --- | --- | --- | --- | --- | --- | --- | --- | --- | --- | --- |
| O=C1CCC(N2Cc3c(NC(=O)CNCCOCCN4CCN(CCNC(=O)[C@]5(Cc6cccc(Nc7nccs7)n6)CC[C@@H](Oc6cccc(Cl)c6F)CC5)CC4)cccc3C2=O)C(=O)N1 (stereo partly drawn) [UB-180810] | 100 to 1000 |  |  |  |  |  |  |  |  |  | EC50 [1]: 100 to 1000 nM; DC50 (PLK1; 6 h, read-out: PLK1 DC50 (6 h)): < 10 nM; EC50 (HUVEC [3]): > 1000 nM; EC50 (PBMC [4]): > 1000 nM |
| CC[C@@H]1C(=O)N(C)c2cnc(Nc3ccc(C(=O)NCCOCCNCCCCCCC(=O)Nc4cccc5c4CN(C4CCC(=O)NC4=O)C5=O)cc3OC)nc2N1Cc1ccc(Cl)s1 (stereo partly drawn) [UB-180675] |  |  |  |  |  | 10 to 100 | < 10 | < 10 | > 1000 | > 1000 |  |
| CC[C@@H]1C(=O)N(C)c2cnc(Nc3ccc(C(=O)NCCOCCNCCCCCCC(=O)Nc4cccc5c4CN(C4CCC(=O)NC4=O)C5=O)cc3OC)nc2N1C1CCCC1 (stereo partly drawn) [UB-180655] |  |  |  |  |  | 10 to 100 | < 10 | 100 to 1000 | > 1000 | > 1000 |  |
| CC[C@@H]1C(=O)N(C)c2cnc(Nc3ccc(C(=O)NCc4cn(CCNCCCC(=O)Nc5cccc6c5CN(C5CCC(=O)NC5=O)C6=O)nn4)cc3OC)nc2N1C1CCCC1 (stereo partly drawn) [UB-180681] |  | 100 to 1000 | 100 to 1000 | 100 to 1000 |  | < 10 | < 10 | 100 to 1000 |  |  | EC50 [10]: 100 to 1000 nM; EC50 [11]: 100 to 1000 nM; EC50 [12]: 100 to 1000 nM |
| CC[C@@H]1C(=O)N(C)c2cnc(Nc3ccc(C(=O)NCc4cn(CCNCCC(=O)Nc5cccc6c5CN(C5CCC(=O)NC5=O)C6=O)nn4)cc3OC)nc2N1C1CCCC1 (stereo partly drawn) [UB-180680] |  | 100 to 1000 | 100 to 1000 | 100 to 1000 |  | 10 to 100 | < 10 | < 10 | > 1000 | > 1000 | EC50 [10]: 100 to 1000 nM; EC50 [11]: 100 to 1000 nM; EC50 [12]: 100 to 1000 nM; DC50 (BRD4; 24 h, western blot, read-out: BRD4 DC50 (24 h)): < 10 nM; DC50 (PLK1; 24 h, western blot, read-out: PLK1 DC50 (24 h)): 10 to 100 nM; EC50 (Daudi [13]): 100 to 1000 nM |
